According to patent US20230096028A1, “BICYCLIC HETEROCYCLYL COMPOUNDS AND USES THEREOF” (Revolution Medicines, Inc., priority 2019, published 2023):
Where two headings read alike, the source gives them in different places.

Legend:
[1] = target: T1, SOS1 catalytic domain (residues 564-1049) (Homo sapiens, UniProt Q07889); test: Mode of Action Assay: inhibition of SOS1 nucleotide exchange activity (SOS1 TR-FRET IC50 Assay)
T1 sequence (Q07889 564-1049): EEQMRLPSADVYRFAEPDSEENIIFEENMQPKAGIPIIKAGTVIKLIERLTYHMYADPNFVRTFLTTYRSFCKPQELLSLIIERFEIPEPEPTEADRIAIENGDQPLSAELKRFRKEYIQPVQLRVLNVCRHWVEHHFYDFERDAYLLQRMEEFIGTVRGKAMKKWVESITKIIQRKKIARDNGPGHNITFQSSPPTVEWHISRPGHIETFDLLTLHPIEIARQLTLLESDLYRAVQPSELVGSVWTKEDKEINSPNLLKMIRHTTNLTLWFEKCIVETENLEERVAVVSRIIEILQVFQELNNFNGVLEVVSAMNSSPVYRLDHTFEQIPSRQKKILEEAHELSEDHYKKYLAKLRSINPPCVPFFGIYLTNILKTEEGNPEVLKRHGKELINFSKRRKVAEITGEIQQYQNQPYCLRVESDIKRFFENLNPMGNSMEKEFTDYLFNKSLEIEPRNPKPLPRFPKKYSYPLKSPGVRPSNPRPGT

[2] = tested on: PC-9 cells (EGFR Ex19Del); test: Potency Assay: pERK (SOS1 pERK IC50 Assay, AlphaLISA SureFire Ultra p-ERK1/2); assay type: cell-based; settings: Homo sapiens, read-out: SOS1 pERK IC50
Experimental: The purpose of this assay is to measure the ability of test compounds to inhibit SOS1 function in cells. SOS1 activates RAS proteins by catalyzing the conversion of RAS GDP to RAS GTP in response to receptor tyrosine kinase activation. […] The procedure described below measures the level of cellular pERK in response to test compounds in PC-9 cells (EGFR Ex19Del).
PC-9 cells were grown and maintained using media and procedures recommended by the ATCC. On the day prior to compound addition, cells were plated in 384-well cell culture plates (40 μL/well) and grown overnight in a 37° C., 5% CO2 incubator. Test compounds were prepared in 10, 3-fold dilutions in DMSO, with a top concentration of 10 mM. On the day of the assay, 40 nL of test compound was added to each well of cell culture plate using an Echo550 liquid handler (LabCyte). Concentrations of test compound were tested in duplicate with highest test concentration being 10 μM. After compound addition, cells were incubated for 1 hour at 37° C., 5% CO2. Following incubation, culture medium was removed and cells were washed once with phosphate buffered saline.
Cellular pERK level was determined using the AlphaLISA SureFire Ultra p-ERK1/2 Assay Kit (PerkinElmer). Cells were lysed in 25 μL lysis buffer, with shaking at 600 RPM at room temperature for 15 minutes. Lysate (10 μL) was transferred to a 384-well Opti-plate (PerkinElmer) and 5 μL acceptor mix was added. The plate was centrifuged at 1000 RPM for 1 minute, and incubated in the dark for 2 hours. Following this incubation, 5 μL of donor mix was added, the plate was sealed and centrifuged at 1000 RPM for 1 minute, and the mixture was incubated for 2 hours at room temperature. Signal was read on an Envision plate reader (PerkinElmer) using standard AlphaLISA settings. Analysis of raw data was carried out in Excel (Microsoft) and Prism (GraphPad). Signal was plotted vs. the decadal logarithm of compound concentration, and IC50 was determined by fitting a 4-parameter sigmoidal concentration response model.

[3] = PC-9 cells (EGFR Ex19Del), 1 hour incubation, AlphaLISA p-ERK1/2

Structure (SMILES): COC1CN([C@@H]2CCc3ncnc(N[C@H](C)c4cccc(C(F)F)c4F)c3C2)C1 [Example 443]
- IC50 [1]: > 1 µM
- IC50 [2, 3]: > 1 µM

Structure (SMILES): Cc1nc2c(c(N[C@H](C)c3cc(N)cc(C(F)(F)F)c3)n1)CN(C(=O)C1CCN(C)CC1)C2 [Example 109, [4-[[(1R)-1-[3-amino-5-(trifluoromethyl)phenyl]ethyl]amino]-2-methyl-5,7-dihydropyrrolo[3,4-d]pyrimidin-6-yl]-(1-methyl-4-piperidyl)methanone]
- IC50 [1]: < 1 µM
- IC50 ([2]; PC-9, 1 h): > 1 µM

Structure (SMILES): CC(C)OC1(C(=O)N2CCc3nc(Cl)nc(N[C@H](C)c4cc(N)cc(C(F)(F)F)c4)c3C2)CCOC1 (stereo partly shown) [Example 195]
- IC50 [1]: > 1 µM
- IC50 [2, 3]: > 1 µM

Structure (SMILES): C[C@@H](Nc1nc(Cl)nc2c1CN(C(=O)[C@@H]1COC[C@@H]1N)C2)c1cccc(C(F)F)c1F [Example 308]
- IC50 [1]: < 1 µM
- IC50 [2, 3]: > 1 µM

Structure (SMILES): C[C@@H](Nc1nc(Cl)nc2c1CN(C(=O)C13OCCCC1C3(F)F)CC2)c1cc(N)cc(C(F)(F)F)c1 (stereo partly shown) [Example 214]
- IC50 [1]: > 1 µM
- IC50 [2, 3]: > 1 µM

Structure (SMILES): Cc1nc2c(c(N[C@H](C)c3cc(N)cc(C(F)(F)F)c3)n1)CN(CC1CCOC1)CC2 (stereo partly drawn) [Example 56, N-[(1R)-1-[3-amino-5-(trifluoromethyl)phenyl]ethyl]-2-methyl-6-(tetrahydrofuran-3-ylmethyl)-7,8-dihydro-5H-pyrido[4,3-d]pyrimidin-4-amine]
- IC50 [1]: < 1 µM
- IC50 [2, 3]: > 1 µM

Structure (SMILES): CC(Nc1nc(Cl)nc2c1CN(C(=O)N1CCOCC1)C2)c1nccc(C(F)F)c1F (stereo not shown) [Example 521, 2-chloro-N-{1-[4-(difluoromethyl)-3-fluoropyridin-2-yl]ethyl}-6-(morpholine-4-carbonyl)-5H,6H,7H-pyrrolo[3,4-d]pyrimidin-4-amine]
- IC50 [1]: > 1 µM
- IC50 ([2]; PC-9, 1 h): > 1 µM

Structure (SMILES): C[C@@H](Nc1nc(Cl)nc2c1CN(C(=O)C1CCN(C)CC1)C2)c1cc(N)cc(C(F)(F)F)c1 [Example 58, [4-[[(1R)-1-[3-amino-5-(trifluoromethyl)phenyl]ethyl]amino]-2-chloro-5,7-dihydropyrrolo[3,4-d]pyrimidin-6-yl]-(1-methyl-4-piperidyl)methanone]
- IC50 [1]: < 1 µM
- IC50 ([2]; PC-9, 1 h): < 1 µM

Structure (SMILES): C[C@@H](Nc1nc(Cl)nc2c1CN(C(=O)C1CC13CCOCC3)CC2)c1cc(N)cc(C(F)(F)F)c1 (stereo partly shown) [Example 197]
- IC50 [1]: > 1 µM
- IC50 [2, 3]: > 1 µM

Structure (SMILES): C[C@@H](Nc1nc(Cl)nc2c1CN(C(=O)N1CCOCC1)C2)c1cccc(C(F)(F)COC2CC2)c1 [Example 531, [2-chloro-4-[[(1R)-1-[3-[2-(cyclopropoxy)-1,1-difluoro-ethyl]phenyl]ethyl]amino]-5,7-dihydropyrrolo[3,4-d]pyrimidin-6-yl]-morpholino-methanone]
- IC50 [1]: < 1 µM
- IC50 ([2]; PC-9, 1 h): < 1 µM

Structure (SMILES): C[C@@H](Nc1ncnc2c1CN(CC1CCOC1)C2)c1cc(N)cc(C(F)(F)F)c1 (stereo partly drawn) [Example 54, N-[(1R)-1-[3-amino-5-(trifluoromethyl)phenyl]ethyl]-6-(tetrahydrofuran-3-ylmethyl)-5,7-dihydropyrrolo[3,4-d]pyrimidin-4-amine]
- IC50 [1]: > 1 µM
- IC50 [2, 3]: > 1 µM

Structure (SMILES): CO[C@H]1C[C@H](C(=O)N2CCc3nc(Cl)nc(N[C@H](C)c4cc(N)cc(C(F)(F)F)c4)c3C2)C1 [Example 190]
- IC50 [1]: > 1 µM
- IC50 [2, 3]: > 1 µM

Structure (SMILES): CC(Nc1nc(Cl)nc2c1CN(C(=O)N1CCOCC1)C2)c1cccc(C2CC2)c1 (stereo not shown) [Example 534, [2-chloro-4-[1-(3-cyclopropylphenyl)ethylamino]-5,7-dihydropyrrolo[3,4-d]pyrimidin-6-yl]-morpholino-methanone]
- IC50 [1]: > 1 µM
- IC50 ([2]; PC-9, 1 h): > 1 µM

Structure (SMILES): Cc1nc2c(c(N[C@H](C)c3cc(N)cc(C(F)(F)F)c3)n1)CN(CC1CCOC1)C2 (stereo partly drawn) [Example 111, N-[(1R)-1-[3-amino-5-(trifluoromethyl)phenyl]ethyl]-2-methyl-6-(tetrahydrofuran-3-ylmethyl)-5,7-dihydropyrrolo[3,4-d]pyrimidin-4-amine]
- IC50 [1]: > 1 µM
- IC50 [2, 3]: > 1 µM

Structure (SMILES): C[C@@H](Nc1nc(Cl)nc2c1CN(C(=O)N1CCOCC1)C2)c1csc(C(F)F)c1F [Example 481, 2-chloro-N-[(1R)-1-[5-(difluoromethyl)-4-fluorothiophen-3-yl]ethyl]-6-(morpholine-4-carbonyl)-5H,6H,7H-pyrrolo[3,4-d]pyrimidin-4-amine]
- IC50 [1]: > 1 µM
- IC50 ([2]; PC-9, 1 h): > 1 µM

Structure (SMILES): C[C@@H](Nc1nc(Cl)nc2c1CN(C(=O)N1CCOCC1)C2)c1cccc(NC2CC2)c1 [Example 520, 2-chloro-N-[(1R)-1-[3-(cyclopropylamino)phenyl]ethyl]-6-(morpholine-4-carbonyl)-5H,6H,7H-pyrrolo[3,4-d]pyrimidin-4-amine]
- IC50 [1]: > 1 µM
- IC50 ([2]; PC-9, 1 h): > 1 µM

Structure (SMILES): CC(Nc1nc(Cl)nc2c1CN(C(=O)N1CCOCC1)C2)c1cccc(S(F)(F)(F)(F)F)c1 (stereo not shown) [Example 462, [2-chloro-4-[1-[3-(pentafluoro-sulfanyl)phenyl]ethylamino]-5,7-dihydropyrrolo[3,4-d]pyrimidin-6-yl]-morpholino-methanone]
- IC50 [1]: > 1 µM
- IC50 [2, 3]: > 1 µM

Structure (SMILES): C[C@@H](Nc1nc(Cl)nc2c1CN([C@H]1CC[C@H](C(=O)N(C)C)CC1)C2)c1cc(N)cc(C(F)(F)F)c1 [Example 57, 4-[4-[[(1R)-1-[3-amino-5-(trifluoromethyl)phenyl]ethyl]amino]-2-chloro-5,7-dihydropyrrolo[3,4-d]pyrimidin-6-yl]-N,N-dimethyl-cyclohexanecarboxamide]
- IC50 [1]: > 1 µM
- IC50 [2, 3]: > 1 µM

Structure (SMILES): COc1c(C(F)F)cccc1C(C)Nc1nc(Cl)nc2c1CN(C(=O)N1CCOCC1)C2 (stereo not shown) [Example 494]
- IC50 [1]: > 1 µM
- IC50 [2, 3]: > 1 µM

Structure (SMILES): C[C@@H](Nc1nc(Cl)nc2c1CN(C(=O)N1CCOCC1)C2)c1cccc(N2CC(O)C2)c1 [Example 518, [2-chloro-4-[[(1R)-1-[3-(3-hydroxyazetidin-1-yl)phenyl]ethyl]amino]-5,7-dihydropyrrolo[3,4-d]pyrimidin-6-yl]-morpholino-methanone]
- IC50 [1]: < 1 µM
- IC50 [2, 3]: > 1 µM

Structure (SMILES): CC(Nc1nc(Cl)nc2c1CN(C(=O)N1CCOCC1)C2)c1cccc(CCO)c1 (stereo not shown) [Example 501, 2-[3-(1-{[2-chloro-6-(morpholine-4-carbonyl)-5H,6H,7H-pyrrolo[3,4-d]pyrimidin-4-yl]amino}ethyl)phenyl]ethan-1-ol]
- IC50 [1]: < 1 µM
- IC50 [2, 3]: > 1 µM

Structure (SMILES): CC(Nc1nc(Cl)nc2c1CN(C(=O)N1CCOCC1)C2)c1cccc2c1C[C@H](CO)C2 (stereo in doubt) [Example 464, (2-chloro-4-(((R)-1-((R)-2-(hydroxymethyl)-2,3-dihydro-1H-inden-4-yl)ethyl)amino)-5,7-dihydro-6H-pyrrolo[3,4-d]pyrimidin-6-yl)(morpholino)methanone]
- IC50 [1]: < 1 µM
- IC50 [2, 3]: > 1 µM

Structure (SMILES): Cc1nc2c(c(N[C@H](C)c3cc(N)cc(C(F)(F)F)c3)n1)CN(S(=O)(=O)N1CCN(C)CC1)C2 [Example 38, (R)—N-(1-(3-amino-5-(trifluoromethyl)phenyl)ethyl)-2-methyl-6-((4-methylpiperazin-1-yl)sulfonyl)-6,7-dihydro-5H-pyrrolo[3,4-d]pyrimidin-4-amine]
- IC50 [1]: < 1 µM
- IC50 [2, 3]: < 1 µM

Structure (SMILES): C[C@@H](Nc1nc(Cl)nc2c1CN(C(=O)c1cc(N3CCOCC3)nc(N3CCOCC3)n1)CC2)c1cc(N)cc(C(F)(F)F)c1 [Example 230]
- IC50 [1]: > 1 µM
- IC50 [2, 3]: > 1 µM

Structure (SMILES): C[C@@H](Nc1nc(Cl)nc2c1CN(C(=O)C13COC(CCO1)C3)CC2)c1cc(N)cc(C(F)(F)F)c1 (stereo partly shown) [Example 220]
- IC50 [1]: > 1 µM
- IC50 [2, 3]: > 1 µM

Structure (SMILES): CNCc1nc2c(c(N[C@H](C)c3cc(N)cc(C(F)(F)F)c3)n1)CN(C(=O)N1CCOCC1)C2 [Example 503, N-[(1R)-1-[3-amino-5-(trifluoro-methyl)phenyl]ethyl]-2-[(methylamino)methyl]-6-(morpholine-4-carbonyl)-5H,6H,7H-pyrrolo[3,4-d]-pyrimidin-4-amine]
- IC50 [1]: < 1 µM
- IC50 [2, 3]: > 1 µM
